Experimental data: article doi:10.1101/2022.07.06.498982v1 (biorxiv, 2022)
pKd: −log10 of the molar value.

Assays:
[1] = biological target: soluble recombinant human TLR4 (hTLR4) (Homo sapiens, UniProt O00206); assay: biochemical
[2] = biological target: soluble recombinant mouse TLR4 (mTLR4) (Mus musculus, UniProt Q9QUK6); assay: biochemical
soluble recombinant mouse TLR4 (mTLR4), sequence (Q9QUK6 26-638 limits assumed): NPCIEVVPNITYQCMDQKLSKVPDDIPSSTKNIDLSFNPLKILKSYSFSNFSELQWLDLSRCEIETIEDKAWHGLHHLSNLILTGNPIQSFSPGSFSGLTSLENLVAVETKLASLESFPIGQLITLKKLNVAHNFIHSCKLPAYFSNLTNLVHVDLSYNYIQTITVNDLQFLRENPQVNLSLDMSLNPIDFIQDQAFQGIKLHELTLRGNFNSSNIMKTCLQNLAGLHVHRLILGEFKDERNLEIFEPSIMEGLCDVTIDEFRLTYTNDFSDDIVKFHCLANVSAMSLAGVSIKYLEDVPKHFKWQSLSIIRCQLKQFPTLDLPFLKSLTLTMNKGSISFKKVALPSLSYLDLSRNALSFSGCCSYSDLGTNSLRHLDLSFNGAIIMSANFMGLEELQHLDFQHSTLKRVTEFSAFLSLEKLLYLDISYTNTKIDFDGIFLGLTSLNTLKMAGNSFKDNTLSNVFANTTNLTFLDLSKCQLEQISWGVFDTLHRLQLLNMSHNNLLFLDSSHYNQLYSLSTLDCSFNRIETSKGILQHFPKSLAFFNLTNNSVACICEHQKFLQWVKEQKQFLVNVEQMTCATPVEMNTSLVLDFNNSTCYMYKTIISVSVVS

soluble recombinant human TLR4 (hTLR4), sequence (O00206 24-631 limits assumed): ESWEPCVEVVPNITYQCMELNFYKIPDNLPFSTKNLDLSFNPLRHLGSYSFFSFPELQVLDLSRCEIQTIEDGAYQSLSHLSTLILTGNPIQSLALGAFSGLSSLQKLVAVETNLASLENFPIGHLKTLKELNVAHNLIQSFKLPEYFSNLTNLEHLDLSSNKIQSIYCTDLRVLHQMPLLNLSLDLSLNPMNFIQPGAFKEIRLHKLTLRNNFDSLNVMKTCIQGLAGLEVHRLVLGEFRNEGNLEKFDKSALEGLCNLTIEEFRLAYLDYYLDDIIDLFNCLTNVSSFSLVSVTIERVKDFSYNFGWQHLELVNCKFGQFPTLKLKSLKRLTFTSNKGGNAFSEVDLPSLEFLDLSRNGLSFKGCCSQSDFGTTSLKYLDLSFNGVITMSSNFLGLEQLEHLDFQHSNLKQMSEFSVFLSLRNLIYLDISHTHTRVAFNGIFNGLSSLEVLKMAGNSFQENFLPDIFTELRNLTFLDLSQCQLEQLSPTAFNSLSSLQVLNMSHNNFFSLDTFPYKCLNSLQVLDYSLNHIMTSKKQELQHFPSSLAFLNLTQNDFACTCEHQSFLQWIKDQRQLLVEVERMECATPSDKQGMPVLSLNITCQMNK

pKd [1]: 4.00
pKd [2]: 3.87
SMILES: [NH2][Pt]([NH2])([Cl])[Cl] [cisplatin]
